In PubChem BioAssay (NCI):
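The concentration for 50% growth inhibition is given as GI50. Definition used: TGI = concentration required for complete inhibition of growth.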

How the values were obtained:
Assay in all cases: DTP human tumour cell line panel, 384-well format
[1] = system: TK-10 renal
[2] = system: SW-620 colon
[3] = system: MOLT-4 leukemia
[4] = system: SR leukemia
[5] = system: NCI-H226 lung
[6] = system: SK-MEL-5 melanoma
[7] = system: LOX IMVI melanoma
[8] = system: SK-MEL-28 melanoma
[9] = system: M14 melanoma
[10] = system: OVCAR-4 ovarian
[11] = system: MALME-3M melanoma
[12] = system: NCI-H522 lung
[13] = system: DU-145 prostate
[14] = system: SK-OV-3 ovarian
[15] = system: K-562 leukemia
[16] = system: NCI-H322M lung
[17] = system: COLO 205 colon
[18] = system: 786-0 renal
[19] = system: EKVX NSCLC
[20] = system: HS 578T breast
[21] = system: T-47D breast
[22] = system: A549 NSCLC
[23] = system: NCI-H460 NSCLC
[24] = system: CAKI-1 renal
[25] = system: SF-268 CNS
[26] = system: A498 renal
[27] = system: HCC-2998 colon
[28] = system: SF-539 CNS
[29] = system: MCF7 breast
[30] = system: SN12C renal
[31] = system: HCT-15 colon
[32] = system: SF-295 CNS
[33] = system: NCI/ADR-RES ovarian
[34] = system: U251 glioblastoma
[35] = system: OVCAR-5 ovarian
[36] = system: SNB-19 CNS
[37] = system: MDA-MB-435 melanoma
[38] = system: HL-60(TB) leukemia
[39] = system: MDA-MB-231 breast
[40] = system: HOP-62 NSCLC
[41] = system: SK-MEL-2 melanoma
[42] = system: CCRF-CEM leukemia
[43] = system: ACHN renal
[44] = system: KM12 colon
[45] = system: IGROV1 ovarian
[46] = system: OVCAR-3 ovarian
[47] = system: NCI-H23 lung

## CC(=O)N1CCC(Nc2cc(C(=O)NC[C@H](O)CN3CCc4ccccc4C3)ncn2)CC1
[1]
  GI50: > 100 µM
  TGI: > 100 µM
[2]
  GI50: > 35.6 µM
  TGI: > 100 µM
[3]
  GI50: < 0.0138 µM
  TGI: 0.0854 µM
[4]
  GI50: 0.183 µM
  TGI: > 100 µM
[5]
  GI50: > 100 µM
  TGI: > 100 µM
[6]
  GI50: > 100 µM
  TGI: > 100 µM
[7]
  GI50: > 100 µM
  TGI: > 100 µM
[8]
  GI50: > 100 µM
  TGI: > 100 µM
[9]
  GI50: > 100 µM
  TGI: > 100 µM
[10]
  GI50: 4.44 µM
  TGI: > 100 µM
[11]
  GI50: > 100 µM
  TGI: > 100 µM
[12]
  GI50: > 100 µM
  TGI: > 100 µM
[13]
  GI50: > 100 µM
  TGI: > 100 µM
[14]
  GI50: > 100 µM
  TGI: > 100 µM
[15]
  GI50: > 100 µM
  TGI: > 100 µM
[16]
  GI50: > 100 µM
  TGI: > 100 µM
[17]
  GI50: > 100 µM
  TGI: > 100 µM
[18]
  GI50: > 100 µM
  TGI: > 100 µM
[19]
  GI50: > 100 µM
  TGI: > 100 µM
[20]
  GI50: > 100 µM
  TGI: > 100 µM
[21]
  GI50: 0.658 µM
  TGI: > 100 µM
[22]
  GI50: > 100 µM
  TGI: > 100 µM
[23]
  GI50: 1.9 µM
  TGI: > 100 µM
[24]
  GI50: > 100 µM
  TGI: > 100 µM
[25]
  GI50: > 100 µM
  TGI: > 100 µM
[26]
  GI50: > 100 µM
  TGI: > 100 µM
[27]
  GI50: > 100 µM
  TGI: > 100 µM
[28]
  GI50: > 100 µM
  TGI: > 100 µM
[29]
  GI50: > 36.8 µM
  TGI: > 100 µM
[30]
  GI50: > 100 µM
  TGI: > 100 µM
[31]
  GI50: > 100 µM
  TGI: > 100 µM
[32]
  GI50: > 100 µM
  TGI: > 100 µM
[33]
  GI50: > 100 µM
  TGI: > 100 µM
[34]
  GI50: > 100 µM
  TGI: > 100 µM
[35]
  GI50: > 100 µM
  TGI: > 100 µM
[36]
  GI50: > 100 µM
  TGI: > 100 µM
[37]
  GI50: > 100 µM
  TGI: > 100 µM
[38]
  GI50: > 100 µM
  TGI: > 100 µM
[39]
  GI50: > 100 µM
  TGI: > 100 µM
[40]
  GI50: > 100 µM
  TGI: > 100 µM
[41]
  GI50: > 100 µM
  TGI: > 100 µM
[42]
  GI50: > 100 µM
  TGI: > 100 µM
[43]
  GI50: > 100 µM
  TGI: > 100 µM
[44]
  GI50: > 100 µM
  TGI: > 100 µM
[45]
  GI50: > 100 µM
  TGI: > 100 µM
[46]
  GI50: > 100 µM
  TGI: > 100 µM
[47]
  GI50: > 100 µM
  TGI: > 100 µM
